Assay results as given in publication PMC12530851, “Design, synthesis, and apoptotic antiproliferative activity of novel dihydropyrimidine-5-carbonitrile/1,2,4-oxadiazole hybrids as dual EGFR/VEGFR-2 inhibitors endowed with antioxidant activity” (RSC Advances, 2025).
Several values for one entry are separate records, joined by “and”; a condition that tells them apart may be missing. Equal values may be shown once.

Key:
caspase-8 = test: Caspase-8 activation assay in MCF-7 cells; type: cell-based, human; conditions: for Caspase-8 Fold change: vs untreated control
Experimental: (§1) Compounds10k and 10l were tested as caspases-3, 8, 9, Bax and p53 activators and as down-regulators of the anti-apoptotic protein Bcl2 against the MCF-7 breast cancer cell line.[41] Appendix A gives more details.
(§2) To elucidate the apoptotic processes of compounds 10k and 10l, whether via the intrinsic or extrinsic pathway, their impacts on caspase-8 and caspase-9 were evaluated. […] This signifies the activation of both intrinsic and extrinsic pathways (Table 5).
(§3) 4.2.6. Caspase-8/9 activation assay
(§4) Cells were obtained from American Type Culture Collection, cells were grown in RPMI 1640 containing 10% fetal bovine serum at 37°C, stimulated with the compounds to be tested for caspase 8/9, and lysed with Cell Extraction Buffer. This lysate was diluted in Standard Diluent Buffer over the range of the assay and measured for human active caspase-8/9 content. (Cells are Plated in a density of 1.2 – 1.8 × 10,000 cells/well in a volume of 100µl complete growth medium + 100 ul of the tested compound per well in a 96-well plate for 24 hours before the enzyme assay). The absorbance of each microwell was read on a spectro-photometer at 450 nm. […]

EGFR = EGFR (Homo sapiens, UniProt P00533); test: EGFR inhibitory assay (EGFR-TK test); conditions: for EGFR inhibitory potency relative to erlotinib: more potent than erlotinib
Chain of EGFR (P00533 669-1210): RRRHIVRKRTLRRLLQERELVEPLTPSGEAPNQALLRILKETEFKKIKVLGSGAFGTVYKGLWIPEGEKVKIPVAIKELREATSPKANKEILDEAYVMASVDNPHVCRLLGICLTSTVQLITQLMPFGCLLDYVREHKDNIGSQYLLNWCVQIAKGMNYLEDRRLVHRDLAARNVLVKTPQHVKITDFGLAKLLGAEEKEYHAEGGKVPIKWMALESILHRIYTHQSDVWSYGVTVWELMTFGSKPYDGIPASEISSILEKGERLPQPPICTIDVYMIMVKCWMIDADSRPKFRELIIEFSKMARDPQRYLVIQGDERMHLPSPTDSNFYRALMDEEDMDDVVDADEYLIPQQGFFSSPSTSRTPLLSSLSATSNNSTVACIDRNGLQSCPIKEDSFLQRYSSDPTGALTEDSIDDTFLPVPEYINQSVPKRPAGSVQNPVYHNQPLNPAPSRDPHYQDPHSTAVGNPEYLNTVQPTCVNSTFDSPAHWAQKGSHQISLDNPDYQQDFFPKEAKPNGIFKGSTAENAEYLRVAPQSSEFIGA
Experimental: Baculoviral expression vectors including pBlueBacHis2B and pFASTBacHTc were used
5ʹ upstream to the EGFR sequence comprised a sequence that encoded (His)6. Sf-9 cells were infected for 72h for protein expression. The pellets of Sf-9 cells were solubilized in a buffer containing sodium vanadate (100 μM), aprotinin (10 μg/mL), triton (1%), HEPES
buffer(50mM), ammonium molybdate (10 μM), benzamidine HCl (16 μg/mL), NaCl (10 mM),leupeptin (10 μg/mL) and pepstatin (10 μg/mL) at 0°C for 20 min at pH 7.4, followed by centrifugation for 20 min. To eliminate the nonspecifically bound material, a Ni-NTA super flow packed column was used to pass through and wash the crude extract supernatant first with 10mM and then with 100 mM imidazole. Histidine-linked proteins were first eluted with 250 and then with 500 mM imidazole subsequent to dialysis against NaCl (50 mM), HEPES (20 mM), glycerol (10%) and 1 μg/mL each of aprotinin, leupeptin and pepstatin for 120 min. The purification was performed either at 4 °C or on ice. To record autophosphorylation level, EGFR kinase assay was carried out on the basis of DELFIA/Time-Resolved Fluorometry. The compounds were first
dissolved in DMSO absolute, subsequent to dilution to appropriate concentration using HEPES
(25 mM) at pH 7.4. Each compound (10 μL) was incubated with recombinant enzyme (10 μL, 5
ng for EGFR, 1:80 dilution in 100 mM HEPES) for 10 min at 25 °C, subsequent to the addition of
5X buffer (10 μL, containing 2 mM MnCl2, 100 μM Na3VO4, 20 mM HEPES and 1 mM DTT)
and ATP-MgCl2 (20 μL, containing 0.1 mM ATP and 50 mM MgCl2) and incubation for 1h. The
negative and positive controls were included in each plate by the incubation of enzyme either with
or without ATP-MgCl2. The liquid was removed after incubation and the plates were washed
thrice using a wash buffer. The Europium-tagged antiphosphotyrosine antibody (75 μL, 400 ng)
was added to each well followed by incubation of 1h and then washing of the plates using buffer.
The enhancement solution was added to each well and the signal was recorded at excitation and
The autophosphorylation percentage inhibition by compounds was calculated using the following equation:
calculated. The majority of signals detected by antiphosphotyrosine antibody were from EGFR because the enzyme preparation contained low impurities.

VEGFR-2 = VEGFR-2 (Homo sapiens, UniProt P35968); test: VEGFR-2 inhibitory assay
Chain of VEGFR-2 (P35968 20-1356): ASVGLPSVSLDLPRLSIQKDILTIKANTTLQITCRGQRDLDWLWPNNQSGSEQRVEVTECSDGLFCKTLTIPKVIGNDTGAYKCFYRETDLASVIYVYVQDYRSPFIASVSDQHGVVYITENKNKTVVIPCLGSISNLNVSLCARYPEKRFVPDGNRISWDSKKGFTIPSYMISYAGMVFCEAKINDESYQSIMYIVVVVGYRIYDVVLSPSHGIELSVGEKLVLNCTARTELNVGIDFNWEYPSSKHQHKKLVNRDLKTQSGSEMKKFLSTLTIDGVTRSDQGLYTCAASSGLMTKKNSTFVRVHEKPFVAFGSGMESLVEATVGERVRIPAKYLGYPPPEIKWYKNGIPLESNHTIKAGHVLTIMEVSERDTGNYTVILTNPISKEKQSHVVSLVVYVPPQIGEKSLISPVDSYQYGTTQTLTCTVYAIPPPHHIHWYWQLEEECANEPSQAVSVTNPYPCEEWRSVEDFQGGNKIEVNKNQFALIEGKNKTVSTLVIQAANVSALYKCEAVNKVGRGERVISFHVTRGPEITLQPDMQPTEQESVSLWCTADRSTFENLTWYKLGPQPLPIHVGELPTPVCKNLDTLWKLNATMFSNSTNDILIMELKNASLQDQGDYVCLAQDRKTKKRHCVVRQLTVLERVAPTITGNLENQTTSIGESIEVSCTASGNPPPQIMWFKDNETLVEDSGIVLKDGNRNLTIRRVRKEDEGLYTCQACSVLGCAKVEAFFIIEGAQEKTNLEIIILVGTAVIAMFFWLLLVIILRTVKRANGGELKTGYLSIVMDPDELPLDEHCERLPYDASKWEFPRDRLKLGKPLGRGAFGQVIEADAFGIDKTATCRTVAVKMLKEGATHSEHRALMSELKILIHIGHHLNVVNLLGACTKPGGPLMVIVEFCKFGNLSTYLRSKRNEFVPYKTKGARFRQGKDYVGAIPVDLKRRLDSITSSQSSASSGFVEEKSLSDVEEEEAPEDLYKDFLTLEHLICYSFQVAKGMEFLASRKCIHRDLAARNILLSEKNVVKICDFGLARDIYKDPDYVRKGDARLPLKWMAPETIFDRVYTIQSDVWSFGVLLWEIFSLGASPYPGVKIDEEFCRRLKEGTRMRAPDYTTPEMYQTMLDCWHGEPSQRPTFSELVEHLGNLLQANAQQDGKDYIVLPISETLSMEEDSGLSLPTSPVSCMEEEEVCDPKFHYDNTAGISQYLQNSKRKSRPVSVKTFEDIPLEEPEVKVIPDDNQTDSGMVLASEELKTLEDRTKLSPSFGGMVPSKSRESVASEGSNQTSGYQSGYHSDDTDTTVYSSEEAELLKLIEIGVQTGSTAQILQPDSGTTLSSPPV
Experimental: The majority of signals detected by antiphosphotyrosine antibody were from EGFR because the enzyme preparation contained low impurities.
Prepare all the solutions using autoclaved, deionized water and analytical grade reagents. Prepare
and store all the reagents at room temperature (unless indicated otherwise). EDTA solution (0.5
M, pH 8.0): add 95 mL ultra-pure water to 14.612 g EDTA, adjust the pH to 8.0 using NaOH
solution, add 5 mL ultra-pure water; 1×Kinase Assay Buffer: add 25 mL HEPES solution (1 M),
water, adjust pH to 7.5 and constant volume to 500 mL using ultrapure water; 4×Stop solution (40
mM): Mix 0.8 mL of the foregoing EDTA solution, 1 mL 10×Detection Buffer and 8.2 mL ultra-
pure water; 1×Detection Buffer: Mix 1 mL 10×Detection Buffer with 9 mL water; 4×VEGFR
μM) was added to 624 μL 1×Kinase Assay Buffer and mixed; 4×ULight™-labeled JAK1
concentration 5 μM) was added to 576 μL 1×Kinase Assay Buffer and mixed; 4×ATP Solution
2×substrate/ATP Mix: 560 μL foregoing 4×ULight™-labeled JAK1 and 560 μL 4×ATP solution
and mixed (prepared before use). The assays used an ULight-labeled peptide substrate and a
Europium-W1024-labeled antiphosphotyrosine antibody. The VEGFR-2 was purchased from
Carna Biosciences, Inc. (New York, USA). The 384-well plates were obtained from PerkinElmer.
Compounds were dissolved in DMSO and diluted to 11 concentrations at a tripling rate from 2.500
5 μL 2×VEGFR-2 kinase solution (0.5 nM)
was added to 384-well plates homogeneous mixing and pre-reaction at room temperature for 30
min. Next, 2.5 μL 4×Ultra ULightTM-JAK-1(Tyr1023) Peptide (200 nM)/ATP (40 μM) was
added to the corresponding wells of a 384-well plate. Negative control: 2.5 μL/well 4×substrate/ATP mixture and 7.5 μL 1×kinase assay buffer in 384-well plate well. Positive control:
μL/well 2×VEGFR-2 kinase solution was added to the 384-well plate, The final concentration of DMSO in the mixing system was 4%. After incubation at room temperature and dark for 60 min, 5 μL 4×stop solution was added to corresponding wells to react for 5 min and then 5 μL 4×detection mix was added to the corresponding wells of a 384-well plate. The mixture was centrifugally mixed and stayed for 60 min at room temperature for color development. The plate
was read using an Envision plate reader. The inhibition rate (%) = (positive well reading-
compound well reading)/(positive well reading-negative well reading)×100. The corresponding IC50 values were calculated using GraphPad Prism 5.0.

caspase-9 = test: Caspase-9 activation assay in MCF-7 cells; type: cell-based, human; conditions: for Caspase-9 Fold change: vs untreated control
Experimental: as §1, §2, §3, §4

[1] = tested on: normal human diploid cell line (WI-38); test: Cytotoxicity against normal cell line (MTT); type: cell-based; conditions: for Selectivity index (SI), A-549: WI-38 vs A-549; for Selectivity index (SI), HT-29: WI-38 vs HT-29; for Selectivity index (SI), MCF-7: WI-38 vs MCF-7; for Selectivity index (SI), Panc-1: WI-38 vs Panc-1
[2] = Cytotoxicity against normal cell line (MTT); type: cell-based, human; conditions: WI-38 normal human diploid cells; normal human diploid WI-38 cells, MTT
caspase-3 = test: Caspase-3 activation assay in MCF-7 cells; type: cell-based, human; conditions: for Caspase-3 Fold change: vs untreated control
A-549 (lung cancer) = test: Antiproliferative assay, A-549; type: cell-based; conditions: Homo sapiens, A549; A-549 lung cancer cells; read-out: Antiproliferative activity IC50 ± SEM, A-549
From the text: The dose–response experiments established the IC50 values for the new compounds. The given findings were obtained from at least two distinct studies, each comprising three repeats per concentration. Appendix A (SI File) provides experimental details.[38,39]
The MTT assay[43] was utilized to assess the antiproliferative effects of compounds 10a–l on four human cancer cell lines: HT-29 (colon cancer), Panc-1 (pancreatic cancer), A-549 (lung cancer), and MCF-7 (breast cancer). […]
4.2.2. Assay for antiproliferative effect
To explore the antiproliferative potential of compounds propidium iodide fluorescence assay was performed using different cell lines such as Panc-1 (pancreas cancer cell line), MCF-7 (breast cancer cell line), HT-29 (colon cancer cell line) and A-549 (epithelial cancer cell line), respectively. To calculate the total nuclear DNA, a fluorescent dye (propidium iodide, PI) is used which can attach to the DNA, thus offering a quick and precise technique. PI cannot pass through the cell membrane and its signal intensity can be considered as directly proportional to quantity of cellular DNA. Cells whose cell membranes are damaged or have changed permeability are counted as dead ones. The assay was performed by seeding the cells of different cell lines at a density of 3000-7500 cells/well (in 200μl medium) in culture plates followed by incubation for 24h at 37 °C in humidified 5%CO2/95% air atmospheric conditions. The medium was removed; the compounds were added to the plates at 10 μM concentrations (in 0.1% DMSO) in triplicates, followed by incubation for 48h. DMSO (0.1%) was used as control. After incubation, medium was removed followed by the addition of PI (25 μl, 50μg/mL in water/medium) to each well of the plates. At - 80 °C, the plates were allowed to freeze for 24 h, followed by thawing at 25 °C. A fluorometer (Polar-Star BMG Tech) was used to record the readings at excitation and emission wavelengths of 530 and 620 nm for each well. The percentage cytotoxicity of compounds was calculated using […]
Where ATC= Absorbance of treated cells and AC= Absorbance of control. Erlotinib was used as positive control in the assay. […]

IC50 (EGFR) [nM]	EGFR inhibitory potency relative to erlotinib (EGFR) [fold]	IC50 (VEGFR-2) [nM]	IC50 (A-549 (lung cancer)) [nM]	Structure (SMILES)	Caspase-8 Conc (caspase-8) [ng/mL]	Caspase-8 Fold change (caspase-8)	Caspase-9 Conc (caspase-9) [ng/mL]	Caspase-9 Fold change (caspase-9) [fold]	Selectivity index (SI), A-549 [1]	Selectivity index (SI), HT-29 [1]	Selectivity index (SI), MCF-7 [1]	Selectivity index (SI), Panc-1 [1]	IC50 [2] [nM]	Caspase-3 Conc (caspase-3) [pg/mL]	Caspase-3 Fold change (caspase-3)
57 ± 3	1.4	21 ± 1	23 ± 1	COc1ccc(-c2nc(SCc3nc(-c4ccc(Cl)cc4)no3)[nH]c(=O)c2C#N)cc1 [Compound 10k, 2-(((3-(4-Chlorophenyl)-1,2,4-oxadiazol-5-yl)methyl)thio)-4-(4-methoxyphenyl)-6-oxo-1,6-dihydropyrimidine-5-carbonitrile]	2.50 ± 0.20	25 fold and 25.00 fold	24 ± 1	24	> 8.0	> 8.0	> 10.0	> 9.0	> 200	590 ± 5	9 fold and 9.00 fold
61 ± 4	1.3	26 ± 1	28 ± 1	COc1ccc(-c2noc(CSc3nc(-c4ccc(OC)cc4)c(C#N)c(=O)[nH]3)n2)cc1 [Compound 10l, 2-(((3-(4-Methoxyphenyl)-1,2,4-oxadiazol-5-yl)methyl)thio)-4-(4-methoxyphenyl)-6-oxo-1,6-dihydropyrimidine-5-carbonitrile]	2.00 ± 0.10	20 fold and 20.00 fold	22 ± 1	22	> 7.0	> 7.0	> 9.0	> 7.0	> 200	530 ± 4	8 fold and 8.00 fold
